Reference: PMC9776540, “Therapeutic Potential of a Water-Soluble Silver-Diclofenac Coordination Polymer on 3D Pancreatic Cancer Spheroids” (Journal of Medicinal Chemistry, 2022)

Experiments:
human cell lines = details: up to a concentration of 100 μM
Description: (§1) MCF7 cell line (human breast adenocarcinoma, morphology: epithelial-like, ATCC: HTB-22), A549 cell […]
(§2) keratinocyte, morphology: epidermal, CSL Cell Lines Service GmbH); were cultured in Dulbecco’s Modified Eagle’s Medium (DMEM, Corning) with phenol red, supplemented with 10% fetal bovine serum (FBS) and with 1% streptomycin/penicillin. […]
(§3) from metastatic site: brain, ATCC: HTB-81) and MCR-5 cell line (primary line of human pulmonary […]
(§4) 10% fetal bovine serum (FBS). Cultures were incubated at 37 °C under a humidified atmosphere containing 5% CO2. Cells were transferred using a solution containing 0.05% trypsin and 0.5 mM EDTA.
(§5) All media and other ingredients were purchased from ALAB, Poland.
Cytotoxicity was assessed by MTT assay performed according the protocols described elsewhere.S1 In brief, 1×10^4 cells per well, seeded in 96-well flat bottom microtiter plate, were incubated with the tested compounds (in the appropriate media) at various range of concentrations for 24 h. […] After next 72 h cell viability was determined using the Hill equation (Origin 9.0) with regard to the untreated cells (control), where y0 – untreated cell control (which was set to 100% viability), y100 – a lysis control (where the cells were treated with 0.5% triton X-100 was set to 0% […]
Determined values of IC50 are given as mean + S.D. (Standard Deviation). […]

MCF-7 = assay: MTT survival test, surviving fraction (Table S3); type: cell-based, human
Description: (§6) 24, and 72 h. After each incubation time, the cells were washed with PBS. Then, fresh medium (supplemented with 10% FSB) was added, and the cells were incubated under standard conditions for another 24 h (6h + 24h, 24h + 24h, 72h + 24h). After this time, the MTT survival test was done. Surviving fraction given in % was estimated with relation to untreated cells. In the case of 6h + 24h and 24h + 24h approaches, the cells were seeded at 10 000 cells per well, while in the case of 72h + 24h at […]

DU-145 [1] = assay: MTT survival test, surviving fraction (Table S3); type: cell-based, human
Description: as §6

PANC-1 [2] = assay: MTT survival test, surviving fraction (Table S3); type: cell-based, human
Description: as §6

A549 [3] = assay: MTT survival test, surviving fraction (Table S3); type: cell-based, human
Description: as §6

HaCat [4] = assay: MTT survival test, surviving fraction (Table S3); type: cell-based, human
Description: as §6

DU-145 [5] = assay: MTT cytotoxicity assay (IC50); type: cell-based, human; details: DU-145, after 72 h incubation, MTT, vs untreated control cells; read-out: IC50
Description: as §1, §2, §3, §4, §5
(§7) Cytotoxicity was assessed by MTT assay performed according the protocols described elsewhere.S1 In brief, 1×10^4 cells per well, seeded in 96-well flat bottom microtiter plate, were incubated with the tested compounds (in the appropriate media) at various range of concentrations for 24 h. After that time, solutions of compounds were washed out, cells were washed three times with PBS and fresh medium was applied. After next 72 h cell viability was determined using the Hill equation (Origin 9.0) with regard to the untreated cells (control), where y0 – untreated cell control (which was set to 100% viability), y100 – a lysis control (where the cells were treated with 0.5% triton X-100 was set to 0% […]
(§8) [c] at which the viability of the cells reaches 50%, H – the Hill coefficient (describing cooperativity):
(§9) Each compound concentration was tested in five replicates and repeated at least three times.
(§10) Determined values of IC50 are given as mean + S.D. (Standard Deviation).
(§11) Cisplatin was tested as a reference anticancer drug. […]

PANC-1 [6] = assay: MTT cytotoxicity assay (IC50); type: cell-based, human; details: PANC-1, after 72 h incubation, MTT, vs untreated control cells; read-out: IC50
Description: as §1, §2, §3, §4, §5, §7, §8, §9, §10, §11

A549 [7] = assay: MTT cytotoxicity assay (IC50); type: cell-based, human; details: A549, after 72 h incubation, MTT, vs untreated control cells; read-out: IC50
Description: as §1, §2, §3, §4, §5, §7, §8, §9, §10, §11

MCF7 = assay: MTT cytotoxicity assay (IC50); type: cell-based, human; details: MCF7, after 72 h incubation, MTT, vs untreated control cells; read-out: IC50
Description: as §1, §2, §3, §4, §5, §7, §8, §9, §10, §11

HaCat [8] = assay: MTT cytotoxicity assay (IC50); type: cell-based, human; details: HaCat normal cells, after 72 h incubation, MTT, vs untreated control cells; read-out: IC50
Description: as §1, §2, §3, §4, §5, §7, §8, §9, §10, §11

MRC5 = assay: MTT cytotoxicity assay (IC50); type: cell-based, human; details: MRC5 normal cells, after 72 h incubation, MTT, vs untreated control cells; read-out: IC50
Description: as §1, §2, §3, §4, §5, §7, §8, §9, §10, §11

O=[N+]([O-])[O-].[Ag+] [AgNO3, silver(I) nitrate]
cytotoxic effect of free Ag(I) salt (human cell lines): does not cause significant toxic effects | surviving fraction (MCF-7; MCF-7, 6h + 24h, dil. 10 000x (stocks: diclofenac 0.918, PTA 0.483, AgNO3 0.326 mg/mL)): 59.2 ± 8.2% | surviving fraction (MCF-7; MCF-7, 6h + 24h, dil. 1000x (stocks: diclofenac 0.918, PTA 0.483, AgNO3 0.326 mg/mL)): 62.7 ± 6.3% | surviving fraction (MCF-7; MCF-7, 24h + 24h, dil. 10 000x (stocks: diclofenac 0.918, PTA 0.483, AgNO3 0.326 mg/mL)): 62.1 ± 5.5% | surviving fraction (MCF-7; MCF-7, 24h + 24h, dil. 1000x (stocks: diclofenac 0.918, PTA 0.483, AgNO3 0.326 mg/mL)): 38.5 ± 7.3% | surviving fraction (MCF-7; MCF-7, 72h + 24h, dil. 10 000x (stocks: diclofenac 0.918, PTA 0.483, AgNO3 0.326 mg/mL)): 56.8 ± 6.2% | surviving fraction (MCF-7; MCF-7, 72h + 24h, dil. 1000x (stocks: diclofenac 0.918, PTA 0.483, AgNO3 0.326 mg/mL)): 36.0 ± 8.4% | surviving fraction (DU-145 [1]; Du-145, 6h + 24h, dil. 10 000x (stocks: diclofenac 0.918, PTA 0.483, AgNO3 0.326 mg/mL)): 74.5 ± 8.8% | surviving fraction (DU-145 [1]; Du-145, 6h + 24h, dil. 1000x (stocks: diclofenac 0.918, PTA 0.483, AgNO3 0.326 mg/mL)): 62.87 ± 5.9% | surviving fraction (DU-145 [1]; Du-145, 24h + 24h, dil. 10 000x (stocks: diclofenac 0.918, PTA 0.483, AgNO3 0.326 mg/mL)): 58.8 ± 7.3% | surviving fraction (DU-145 [1]; Du-145, 24h + 24h, dil. 1000x (stocks: diclofenac 0.918, PTA 0.483, AgNO3 0.326 mg/mL)): 36.7 ± 7.1% | surviving fraction (DU-145 [1]; Du-145, 72h + 24h, dil. 10 000x (stocks: diclofenac 0.918, PTA 0.483, AgNO3 0.326 mg/mL)): 56.1 ± 5.9% | surviving fraction (DU-145 [1]; Du-145, 72h + 24h, dil. 1000x (stocks: diclofenac 0.918, PTA 0.483, AgNO3 0.326 mg/mL)): 42.8 ± 5.9% | surviving fraction (PANC-1 [2]; PANC-1, 6h + 24h, dil. 10 000x (stocks: diclofenac 0.918, PTA 0.483, AgNO3 0.326 mg/mL)): 76.2 ± 7.4% | surviving fraction (PANC-1 [2]; PANC-1, 6h + 24h, dil. 1000x (stocks: diclofenac 0.918, PTA 0.483, AgNO3 0.326 mg/mL)): 65.89 ± 4.6% | surviving fraction (PANC-1 [2]; PANC-1, 24h + 24h, dil. 10 000x (stocks: diclofenac 0.918, PTA 0.483, AgNO3 0.326 mg/mL)): 65.8 ± 6.6% | surviving fraction (PANC-1 [2]; PANC-1, 24h + 24h, dil. 1000x (stocks: diclofenac 0.918, PTA 0.483, AgNO3 0.326 mg/mL)): 44.2 ± 9.2% | surviving fraction (PANC-1 [2]; PANC-1, 72h + 24h, dil. 10 000x (stocks: diclofenac 0.918, PTA 0.483, AgNO3 0.326 mg/mL)): 65.8 ± 6.1% | surviving fraction (PANC-1 [2]; PANC-1, 72h + 24h, dil. 1000x (stocks: diclofenac 0.918, PTA 0.483, AgNO3 0.326 mg/mL)): 55.4 ± 6.7% | surviving fraction (A549 [3]; A549, 6h + 24h, dil. 10 000x (stocks: diclofenac 0.918, PTA 0.483, AgNO3 0.326 mg/mL)): 68.1 ± 6.2% | surviving fraction (A549 [3]; A549, 6h + 24h, dil. 1000x (stocks: diclofenac 0.918, PTA 0.483, AgNO3 0.326 mg/mL)): 48.9 ± 6.5% | surviving fraction (A549 [3]; A549, 24h + 24h, dil. 10 000x (stocks: diclofenac 0.918, PTA 0.483, AgNO3 0.326 mg/mL)): 57.4 ± 3.8% | surviving fraction (A549 [3]; A549, 24h + 24h, dil. 1000x (stocks: diclofenac 0.918, PTA 0.483, AgNO3 0.326 mg/mL)): 31.2 ± 5.5% | surviving fraction (A549 [3]; A549, 72h + 24h, dil. 10 000x (stocks: diclofenac 0.918, PTA 0.483, AgNO3 0.326 mg/mL)): 55.8 ± 8.1% | surviving fraction (A549 [3]; A549, 72h + 24h, dil. 1000x (stocks: diclofenac 0.918, PTA 0.483, AgNO3 0.326 mg/mL)): 34.1 ± 5.3% | surviving fraction (HaCat [4]; 6h + 24h, dil. 10 000x (stocks: diclofenac 0.918, PTA 0.483, AgNO3 0.326 mg/mL)): 88.1 ± 4.2% | surviving fraction (HaCat [4]; 6h + 24h, dil. 1000x (stocks: diclofenac 0.918, PTA 0.483, AgNO3 0.326 mg/mL)): 76.7 ± 6.8% | surviving fraction (HaCat [4]; 24h + 24h, dil. 10 000x (stocks: diclofenac 0.918, PTA 0.483, AgNO3 0.326 mg/mL)): 72.7 ± 8.1% | surviving fraction (HaCat [4]; 24h + 24h, dil. 1000x (stocks: diclofenac 0.918, PTA 0.483, AgNO3 0.326 mg/mL)): 41.6 ± 6.9% | surviving fraction (HaCat [4]; 72h + 24h, dil. 10 000x (stocks: diclofenac 0.918, PTA 0.483, AgNO3 0.326 mg/mL)): 70.5 ± 5.8% | surviving fraction (HaCat [4]; 72h + 24h, dil. 1000x (stocks: diclofenac 0.918, PTA 0.483, AgNO3 0.326 mg/mL)): 65.2 ± 6.3%

N.N.[Cl][Pt][Cl] [cisplatin]
IC50 (DU-145 [5]): > 100 µM | IC50 (PANC-1 [6]): 12.5 ± 1.3 µM | IC50 (A549 [7]): > 100 µM | IC50 (MCF7): 50.9 ± 7.6 µM | IC50 (HaCat [8]): 26.4 ± 2.7 µM | IC50 (MRC5): 31.5 ± 4.1 µM
